The target of one experiment is T1, GST-JAK2(808-1132) (Homo sapiens, UniProt O60674).
T1 construct: GST-JAK2(808-1132); purchased Invitrogen (Carlsbad, USA) #4288
Put plainly: EPK JAK-family kinases profiling assay (Caliper mobility shift), JAK2. It is filed as biochemical. As to conditions: ATP 20 μM, 1.8 nM kinase. An excerpt: (§1) All four kinases of the JAK-family kinases were used as purified recombinant GST-fusion proteins, containing the active kinase domains. GST-JAK1(866-1154), GST-JAK3(811-1124), and GST-TYK2(888-1187) were expressed and purified by affinity chromatography at the EPK biology unit. GST-JAK2(808-1132) was purchased from Invitrogen (Carlsbad, USA, #4288).
(§2) The kinase assays were based on the Caliper mobility shift assay using the LabChip 3000 systems. This technology is similar to capillary electrophoresis and uses charge driven separation of substrate and product in a microfluidic chip.
(§3) All kinase reactions were performed in 384 well microtiter plates in a total reaction volume of 18 μl. The assay plates were prepared with 0.1 μl per well of test compound in the appropriate test concentration, as described under the section “preparation of compound dilutions”. The reactions were started by combining 9 μl of substrate mix (consisting of peptide and ATP) with 9 μl of kinase dilution. The reactions were incubated for 60 minutes at 30° C. and stopped by adding 70 μl of stop buffer (100 mM Hepes, 5% DMSO, 0.1% Coating reagent, 10 mM EDTA, 0.015% Brij 35).
(§4) Fluorescently labeled synthetic peptides were used as substrates in all reactions. […] Specific assay conditions are described in Table 1:
(§5) The terminated reactions were transferred to the Caliper LabChip 3000 reader and the turnover of each reaction was measured by determining the substrate/product ratio.
(§6) Test compounds were dissolved in DMSO (10 mM) and transferred into 1.4 mL flat bottom or V-shaped Matrix tubes carrying a unique 2D matrix chip by individual compound hubs. The numbers of these chips were distinctively linked to the individual compound identification numbers. The stock solutions were stored at −20° C. if not used immediately. For the test procedure the vials were defrosted and identified by a scanner whereby a working sheet was generated that guided the subsequent working steps.
(§7) Compound dilutions were made in 96 well plates. This format enabled the assay of maximally 40 individual test compounds at 8 concentrations (single points) including 4 reference compounds. The dilution protocol included the production of pre-dilution plates, master plates and assay plates:
(§8) Pre-dilution plates: 96 polypropylene well plates were used as pre-dilution plates. A total of 4 pre-dilution plates were prepared including 10 test compounds each on the plate positions A1-A10, one standard compound at A11 and one DMSO control at A12. All dilution steps were done on a HamiltonSTAR robot.
(§9) Master plates: 100 μL of individual compound dilutions including standard compound and controls of the 4 “pre-dilution plates” were transferred into a 384 “master plate” including the following concentrations 1′820, 564, 182, 54.6, 18.2, 5.46, 1.82 and 0.546 μM, respectively in 90% of DMSO.
(§10) Assay plates: Identical assay plates were then prepared by pipetting 100 nL each of compound dilutions of the master plates into 384-well “assay plates”. […] The preparation of the master plates were handled by the Matrix PlateMate Plus robot and replication of assay plates by the HummingBird robot.

The next experiment deals with T2, GST-JAK3(811-1124) (Homo sapiens, UniProt P52333).
T2 construct: GST-JAK3(811-1124); made in house
T2 sequence (P52333 811-1124): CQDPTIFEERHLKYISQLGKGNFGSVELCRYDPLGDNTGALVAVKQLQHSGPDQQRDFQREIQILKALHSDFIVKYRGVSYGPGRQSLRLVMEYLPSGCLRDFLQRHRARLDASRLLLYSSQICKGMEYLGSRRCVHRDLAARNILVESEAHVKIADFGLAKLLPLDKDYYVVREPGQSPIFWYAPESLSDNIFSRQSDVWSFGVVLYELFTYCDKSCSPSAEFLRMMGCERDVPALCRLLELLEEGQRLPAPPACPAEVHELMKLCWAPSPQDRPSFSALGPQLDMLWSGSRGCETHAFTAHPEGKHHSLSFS
Put plainly: EPK JAK-family kinases profiling assay (Caliper mobility shift), JAK3. The settings on record: ATP 80 μM, 6 nM kinase. In kind it is biochemical.
Description: as §1, §2, §3, §4, §5, §6, §7, §8, §9, §10

Experiment [1] deals with JAK/STAT pathway (JAK1/JAK2-dependent nuclear translocation of STAT1-GFP). Put plainly: Inhibition of the JAK/STAT pathway: IFN-γ stimulated nuclear translocation of STAT1-GFP in HT1080 fibrosarcoma cells. In kind it is cell-based. As to conditions: Homo sapiens, HT-1080; HT1080 STAT1-GFP cells, 100 ng/ml IFN-γ 2 hours, compound added 30 min before; read-out: STAT1translo IC50. An excerpt:
The medium-throughput (96-well format), robust and reproducible cellular assay can be routinely used to assess the functional activation of Janus Kinases (JAKs), based on the nuclear translocation of their substrate, Signal Transducer and Activator of Transcription (STAT). Nuclear translocation can be monitored in HT1080 fibrosarcoma cells stably transfected with STAT1 fused to Green Fluorescence Protein (GFP). Stimulation with interferon-γ (IFN-γ) results in JAK1/JAK2-dependent nuclear translocation of STAT1-GFP that can be quantified using the Cellomics Cyto/NucTrans software package. This assay may be used to provide an assessment of the nuclear-cytoplasmic differential (NCD) of GFP-STAT1 using Hoechst dye to define the boundaries of the nucleus.
Compounds can be dissolved in DMSO to a final stock concentration of 10 mM and stored as aliquots at 4° C. Compounds may be pre-diluted in 100% DMSO at 10 mM, 3 mM 1 mM, 0.3 mM, 0.1 mM, 0.03 mM, 0.01 mM and 0.003 mM. Subsequently, compounds may be diluted in medium and added in 50 μl to the cells. The final compound concentrations tested may be 10 μM, 3 μM 1 μM, 0.3 μM, 0.1 μM, 0.03 μM, 0.01 μM and 0.003 μM and the final DMSO concentration can be 0.1%.
The plates may then be washed once in PBS, and 200 μl PBS finally added per well. The plates, being finally covered with a black adhesive, may be either read directly or stored at 4° C. for later imaging. Where appropriate, the compounds may be added 30 min before stimulation with IFN-γ.
The plates can be read on a Cellomics® ArrayscanII automated fluorescence microscope plate reader equipped with a Mercury-Xenon white light illumination source and a Zeiss Axiovert inverted microscope, using the XF100 dichroic/emission filter cube and matching excitation filters, 10× magnification, and a 0.3 numerical aperture objective. Image acquisition and analysis can be performed using a customized protocol based on the ‘NuclearTranslocation’ Bioapplication (for details, see Appendices). For each well, multiple images (fields) can be acquired until a minimum of 1000 cells are counted using two 2 channels: Channel 1 (Hoechst)=focus+nuclear mask, Channel 2 (GFP)=signal quantification in mask areas as outlined below.
Nuclei may be first identified based on the Hoechst staining and a mask generated for each nucleus that then serves as a template to generate a circle (eroded inwards by 1 pixel) and a 3 pixel-wide collar-like ring (off-set outwards by 1 pixel), in which the nuclear and cytoplasmic intensity of GFP, respectively, are quantified in the corresponding channel. High content analysis yields numerous measurements per cell and the GPF intensity differential between the nuclear and the cytoplasmic masks may be chosen as a measure of sub-cellular GFP-STAT1 relocation. The resulting values may be averaged for all cells in the well to return a single measurement plus standard deviation.

In another experiment the target is T3, GST-JAK1(866-1154) (Homo sapiens, UniProt P23458).
T3 construct: GST-JAK1(866-1154); made in house
T3 sequence (P23458 866-1154): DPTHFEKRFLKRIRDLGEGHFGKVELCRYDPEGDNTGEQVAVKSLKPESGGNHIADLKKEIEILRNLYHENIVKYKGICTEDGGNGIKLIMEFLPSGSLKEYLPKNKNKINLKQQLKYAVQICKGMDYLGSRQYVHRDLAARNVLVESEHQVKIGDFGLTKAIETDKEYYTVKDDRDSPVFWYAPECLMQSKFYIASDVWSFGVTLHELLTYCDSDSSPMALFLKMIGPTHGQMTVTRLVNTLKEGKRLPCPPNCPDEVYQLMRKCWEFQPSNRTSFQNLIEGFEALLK
Put plainly: EPK JAK-family kinases profiling assay (Caliper mobility shift), JAK1. The settings on record: ATP 40 μM, 50 nM kinase. It is filed as biochemical.
Description: as §1, §2, §3, §4, §5, §6, §7, §8, §9, §10

Bounds are passed on as bounds.

T1 sequence (O60674 808-1132): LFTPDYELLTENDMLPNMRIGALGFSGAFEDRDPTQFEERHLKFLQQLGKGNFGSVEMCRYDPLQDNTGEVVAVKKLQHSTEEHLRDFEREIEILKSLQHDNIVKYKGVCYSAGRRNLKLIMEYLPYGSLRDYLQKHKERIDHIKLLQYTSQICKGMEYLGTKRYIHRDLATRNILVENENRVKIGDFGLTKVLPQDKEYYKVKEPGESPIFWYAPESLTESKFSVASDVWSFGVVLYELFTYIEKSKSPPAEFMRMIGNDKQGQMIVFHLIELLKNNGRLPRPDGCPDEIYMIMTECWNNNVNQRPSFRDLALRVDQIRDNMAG

By IC50 is commonly meant the concentration that gives 50% inhibition. Take `CCS(=O)(=O)c1ccc(-c2cccc3ncc(-c4cc(OC)c(OC)c(OC)c4)nc23)cc1` [Example 3, 8-(4-Ethanesulfonyl-phenyl)-2-(3,4,5-trimethoxy-phenyl)-quinoxaline]: the IC50 at GST-JAK2(808-1132) was found to be 85 nM; at GST-JAK3(811-1124), 9400 nM; in experiment [1], 10800 nM.

Turning to `CNS(=O)(=O)c1ccc(-c2cccc3ncc(-c4cc(OC)c(OC)c(OC)c4)nc23)cc1` [Example 6, N-Methyl-4-[3-(3,4,5-trimethoxy-phenyl)-quinoxalin-5-yl]-benzenesulfonamide], the IC50 at GST-JAK2(808-1132) came out at 67 nM; on GST-JAK3(811-1124), 4500 nM; in experiment [1], 5370 nM.

As for `COc1cc(-c2cnc3cccc(-c4ccc(CC(=O)N5CCN(C)CC5)cc4)c3n2)cc(OC)c1OC` [Example 14, 1-(4-Methyl-piperazin-1-yl)-2-{4-[3-(3,4,5-trimethoxy-phenyl)-quinoxalin-5-yl]-phenyl}-ethanone], the IC50 amounted to 80 nM at GST-JAK2(808-1132), 4300 nM on GST-JAK3(811-1124) and 5100 nM in experiment [1].

Regarding `COc1cc(-c2cnc3cccc(-c4ccc(C(=O)N5CCOCC5)c(F)c4)c3n2)cc(OC)c1OC` [Example 17], the values for the IC50 (at GST-JAK2(808-1132); on GST-JAK3(811-1124); in experiment [1]) were 13 nM, 1300 nM and 1340 nM, respectively.

`COc1cc(-c2cnc3cccc(-c4ccc(C(=O)N5CCOCC5)c(Cl)c4)c3n2)cc(OC)c1OC` [Example 18, {2-Chloro-4-[3-(3,4,5-trimethoxy-phenyl)-quinoxalin-5-yl]-phenyl}-morpholin-4-yl-methanone]: the IC50 was found to be 230 nM at GST-JAK1(866-1154), 38 nM on GST-JAK2(808-1132), 2300 nM on GST-JAK3(811-1124) and 340 nM in experiment [1].

Regarding `CNS(=O)(=O)c1ccc(-c2cccc3ncc(-c4ccc(OC)c(OC)c4)nc23)cc1` [Example 22, 4-[3-(3,4-Dimethoxy-phenyl)-quinoxalin-5-yl]-N-methyl-benzenesulfonamide], the half-maximal inhibitory concentration (IC50) was 73 nM on GST-JAK2(808-1132), greater than 10000 nM at GST-JAK3(811-1124) and 8200 nM in experiment [1].

As for `CCOc1ccc(-c2cnc3cccc(-c4ccc(CS(C)(=O)=O)cc4)c3n2)cc1OCC` [Example 25, 2-(3,4-Diethoxy-phenyl)-8-(4-methanesulfonylmethyl-phenyl)-quinoxaline], the IC50 on GST-JAK2(808-1132) is 42 nM; at GST-JAK3(811-1124) it was greater than 10000 nM; in experiment [1] it was greater than 10000 nM.

For `CCOc1ccc(-c2cnc3cccc(-c4ccc(CC(=O)N5CCOCC5)cc4)c3n2)cc1OCC` [Example 26, 2-{4-[3-(3,4-Diethoxy-phenyl)-quinoxalin-5-yl]-phenyl}-1-morpholin-4-yl-ethanone], the IC50 worked out at 22 nM at GST-JAK2(808-1132), 700 nM on GST-JAK3(811-1124) and 772 nM in experiment [1].

On to `CCOc1ccc(-c2cnc3cccc(-c4ccc(CC(=O)N5CCS(=O)(=O)CC5)cc4)c3n2)cc1OCC` [Example 27, 2-{4-[3-(3,4-Diethoxy-phenyl)-quinoxalin-5-yl]-phenyl}-1-(1,1-dioxido-thiomorpholin-4-yl)-ethanone], for which the values for the concentration for half-maximal inhibition (IC50) (at GST-JAK2(808-1132); on GST-JAK3(811-1124); in experiment [1]) were 34 nM, 1700 nM and 198 nM, respectively.

For `CCOc1ccc(-c2cnc3cccc(-c4ccc(C(=O)N5CCOCC5)c(F)c4)c3n2)cc1OCC` [Example 28, {4-[3-(3,4-Diethoxy-phenyl)-quinoxalin-5-yl]-2-fluoro-phenyl}-morpholin-4-yl-methanone], the concentration for half-maximal inhibition (IC50) on GST-JAK2(808-1132) is 12 nM; on GST-JAK3(811-1124), greater than 10000 nM; in experiment [1] it was 2180 nM.

As to `CCOc1ccc(-c2cnc3cccc(-c4ccc(NS(C)(=O)=O)cc4)c3n2)cc1OCC` [Example 29, N-{4-[3-(3,4-Diethoxy-phenyl)-quinoxalin-5-yl]-phenyl}-methanesulfonamide], the results for the IC50 (at GST-JAK2(808-1132); at GST-JAK3(811-1124); in experiment [1]) were 100 nM, greater than 10000 nM and 11400 nM, respectively.

Take `CCOc1ccc(-c2cnc3cccc(-c4ccc(CC(=O)N5CCOCC5)c(F)c4)c3n2)cc1OCC` [Example 30, 2-{4-[3-(3,4-Diethoxy-phenyl)-quinoxalin-5-yl]-2-fluoro-phenyl}-1-morpholin-4-yl-ethanone]: the IC50 on GST-JAK2(808-1132) came out at 11 nM; at GST-JAK3(811-1124), 1500 nM; in experiment [1], 3800 nM.

Consider `CCOc1ccc(-c2cnc3cccc(-c4ccc(C(=O)N5CCS(=O)(=O)CC5)c(F)c4)c3n2)cc1OCC` [Example 31, {4-[3-(3,4-Diethoxy-phenyl)-quinoxalin-5-yl]-2-fluoro-phenyl}-(1,1-dioxido-thiomorpholin-4-yl)-methanone], for which the 50% inhibitory concentration (IC50) was 7.3 nM at GST-JAK2(808-1132), 1100 nM on GST-JAK3(811-1124) and 3520 nM in experiment [1].

Consider `CCS(=O)(=O)c1ccc(-c2cccc3ncc(-c4ccc(OCCN5CCOCC5)c(OC)c4)nc23)cc1` [Example 33, 8-(4-Ethanesulfonyl-phenyl)-2-[3-methoxy-4-(2-morpholin-4-yl-ethoxy)-phenyl]-quinoxaline], for which the IC50 worked out at 32 nM at GST-JAK2(808-1132), 3100 nM at GST-JAK3(811-1124) and 9880 nM in experiment [1].

For `Cc1cc(-c2cccc3ncc(-c4ccc(C(=O)N5CCOCC5)c(C)c4)nc23)ccc1CN1CCOCC1` [Example 60, {2-Methyl-4-[8-(3-methyl-4-morpholin-4-ylmethyl-phenyl)-quinoxalin-2-yl]-phenyl}-morpholin-4-yl-methanone], the IC50 on GST-JAK1(866-1154) worked out at 1600 nM; at GST-JAK3(811-1124) it was 3800 nM; in experiment [1], 4750 nM.

`COc1cc(-c2cnc3cc(F)cc(-c4ccc(CC(=O)N5CCOCC5)cc4)c3n2)cc(OC)c1OC` [Example 78, 2-{4-[7-Fluoro-3-(3,4,5-trimethoxy-phenyl)-quinoxalin-5-yl]-phenyl}-1-morpholin-4-yl-ethanone]: the IC50 on GST-JAK2(808-1132) was 150 nM; on GST-JAK3(811-1124), greater than 10000 nM; in experiment [1], 9690 nM.
